These results are taken from patent publication US10918648B2, “Estrogen receptor modulator combinations” (The Regents of the University of California, priority 2016, dated 2021).

Experiment [1] relates to MCF-7 breast cancer cells. Put plainly: MCF-7 breast cancer cell proliferation (BrdU ELISA) in presence of estradiol-17β. Format: cell-based, human. The conditions noted are these: for IC50: Homo sapiens, MCF7, 72 hrs in the presence of 1 nM estradiol-17β, BrdU ELISA, read-out: IC50 for inhibition of cell proliferation, MCF-7; for inhibition of MCF-7 cell proliferation/survival: 1 μM or 50 μM antiestrogen in the presence of 1 nM estradiol, 1% DCC-FBS, FIG. 2A. The method, then: In experiments to assess potential proliferative effects of novel estrogen receptor ligands, human breast cancer cells were grown in phenol red-free, estrogen-free media with 1% dextran-coated charcoal-treated (DCC)-fetal bovine serum (FBS) for 48 hrs (15,44), then treated with either 1 μM or 50 μM doses of estrogen receptor antagonists in the presence of 1 nM estradiol-17β. Cell counts and viability tests (Trypan blue) were done every 24 hr for 3 days. After 72 hr, proliferation was assessed using the BrdU Cell proliferation ELISA (Roche). Cell numbers were also assessed initially by cell counts to confirm ELISA data. Each antiestrogen was tested at least in three different experiments.
In order to assess the antitumor action of novel estrogen receptor antagonists, we cultured human MCF-7 breast cancer cells with known expression of ERα. Cells were grown in 1% DCC-FBS for 48 hr and then treated with vehicle control or either 1 μM or 50 μM concentrations of antiestrogens JD 101-160 or the pure antiestrogen fulvestrant (FAS), all in the presence of 1 nM estradiol-170. […] Shown in FIG. 2A are results from MCF-7 cells grown in 1% DCC-FBS for 48 hr and then treated with vehicle control, 1 nM estradiol-170 and either 1 μM or 50 μM concentrations of antiestrogens JD 101-160 or the known pure antiestrogen fulvestrant (FAS) in the presence of 1 nM estradiol-170. Cell proliferation is expressed as percentage of that determined in the 1 nM estradiol-170-treated control group.
Cell proliferation assays: breast and lung tumor cells (between […]) were plated in 96 well plates using their respective medium with 10% FBS. For experiments using estradiol-17β, cells were rinsed with PBS and incubated with phenol redfree medium with 1% DCC-FBS for 48 hours as described before (24,25). Cells were then treated with different concentrations of SERDs ranging between 0.0001-100 μM. […] Cell counts and viability tests (Trypan blue) were done every 24 hr for 3 days. After 72 hr, proliferation was assessed with the MTS Assay CELLTITER 96® Aqueous Cell Proliferation Assay (Promega) or the Cell Proliferation ELISA, BrdU colorimetric assay (Roche). For the MTS, the absorbance of the formazan product was measured at 490 nanometer using the iMARK microplate reader from BIORAD. The BrdU ELISA assay is based on detection of BrdU incorporated into the genomic DNA of proliferating cells and an anti-BrdU antibody, the reaction product was quantified by measuring the absorbance at 370 nanometers using iMARK microplate reader from BIORAD. Cell numbers were also assessed initially by cell counts to confirm MTS/BrdU data. Experiments were done at least three times to confirm data.

The subject of experiment [2] is Tamoxifen-resistant human MCF-7 breast cancer cells. Put plainly: Endocrine-resistant breast cancer cell proliferation in vitro. As to conditions: 72 hrs; 50 nM Palbociclib, 10 nM S128, or both; P<0.001 vs control and 100 nM tamoxifen; FIG. 10. Format: cell-based. As to the method: Tamoxifen-resistant human MCF-7 breast cancer cells were treated in vitro with control vehicle (CON), 100 nM tamoxifen (TAM), 50 nM Palbociclib (Pb) or 10 nM S128 or with Palbociclib in combination with S128 (S128+Pb) over 72 hrs. […] (FIG. 10)

In the next experiment the test system is cleaved PARP. Description: PARP cleavage, Western blot in A549 cells. Format: cell-based, human. As to conditions: A549 cells, 0.01, 0.1 and 1 μM, 4 hours, 5% DCC-FBS; FIG. 2B. The method, then: FIG. 2B. […] A549 cells were treated in 5% DCC-FBS phenol-red free RPMI1640 with vehicle control (C) or increasing concentrations of JD140 at 0.01, 0.1 and 1 μM or 0.1 μM fulvestrant (F) for 4 hours. Western Blots were performed using anti-cleaved-PARP antibody (Cell Signaling Technology). RPL13A is shown as loading control. The Western blot is representative of 3 independent experiments.
We next assessed the effect of SERD compound 140 on the stimulation of NSCLC cell apoptosis by measurement of PARP cleavage at increasing drug doses (see FIG. 2B).
Gel electrophoresis and immunoblotting: Breast and lung tumor cells were treated in phenol-red free RPMI1640/DMEM with 5% DCC-FBS (26). After selected treatments cells were homogenized in the presence of protease inhibitors using RIPA buffer (Thermo Scientific). All procedures were performed in ice, lysates were centrifuged and protein concentration quantified in the supernatants using a Thermo Scientific® BCA protein assay kit. Approximately 20-60 μg of total protein were heated in the presence of Laemmli sample buffer (Biorad) to 100° C. for 10 min and loaded it on a gradient TGX gel 4-15% (Biorad). Gels were transferred to PVDF membranes for immunoblotting. Membranes were blocked either with 5% milk in Tris Buffer Saline with 0.1% Tween 20 or protein-free blocking solution (Thermo Scientific). […]
In general terms: Immunoblotting shows a protein as a band on a membrane.

As to `C[C@]12C[C@H](Oc3ccc(N)cc3)[C@@H]3c4ccc(O)cc4CC[C@H]3[C@@H]1CC[C@@H]2O` [JD105, (8S,9S,11S,13S,14S,17S)-11-(4-aminophenoxy)-13-methyl-7,8,9,11,12,13,14,15,16,17-decahydro-6H-cyclopenta[a]phenanthrene-3,17-diol], the IC50 in experiment [1] was found to be 2.14 µM.

`C[C@]12C[C@H](Oc3ccc(N)c(C(F)(F)F)c3)[C@@H]3c4ccc(O)cc4CC[C@H]3[C@@H]1CC[C@@H]2O` [JD128, (8S,9S,11S,13S,14S,17S)-11-(4-Amino-3-(trifluoromethyl)phenoxy)-13-methyl-7,8,9,11,12,13,14,15,16,17-decahydro-6H-cyclopenta[a]phenanthrene-3,17-diol]: in experiment [1], the “inhibition of MCF-7 cell proliferation/survival” value is recorded as “significant inhibition” and the IC50 is 0.11 µM. Besides, the “endocrine-resistant breast cancer cell proliferation” value in experiment [2] is “significantly different from control”.

Regarding `C[C@]12C[C@H](Oc3ccc(NC(=O)CCCCN4CCCCC4)c(F)c3)[C@@H]3c4ccc(O)cc4CC[C@H]3[C@@H]1CC[C@@H]2O` [JD140, N-(4-(((8S,9S,11S,13S,14S,17S)-3,17-Dihydroxy-13-methyl-7,8,9,11,12,13,14,15,16,17-deca-hydro-6H-cyclopenta[a]phenanthren-11-yl)oxy)-2-fluorophenyl)-5-(piperidin-1-yl)pentan-amide], the PARP cleavage entry in the experiment on cleaved PARP is listed as “enhanced PARP cleavage”. In experiment [1], the “inhibition of MCF-7 cell proliferation/survival” value was “significant inhibition” and the IC50 is 0.32 µM.
